Experimental data: patent US20260285877A1, “Macrocyclic EGFR Inhibitor, and Preparation Method Therefor and Pharmaceutical Use Thereof” (Abbisko Therapeutics Co., Ltd., priority 2022, published 2026)

How the values were obtained:
[1] = test system: Ba/F3 EGFR-L858R-T790M-C797S (LTC); assay: Cell proliferation assay (CellTiter-Glo), Ba/F3 EGFR-L858R-T790M-C797S; assay type: cell-based; settings: Mus musculus, BaF3; Ba/F3 EGFR-L858R-T790M-C797S cells, 72 hour incubation, CTG
Procedure: (§1) • (1) Harvest cells in a logarithmic growth phase and count the cells using a platelet counter.
(§2) • (1) Add 10 μL PBS to each well of the TO plate containing cells. • (2) Thaw the CTG reagent and equilibrate the plate to room temperature for 30 minutes. • (3) Add an equal volume of CTG solution to each well. • (4) Lyse cells by shaking on an orbital shaker for 5 minutes. • (5) Leave the plate at room temperature for 20 minutes to stabilize the luminescence signal. • (6) Read the TO fluorescence signal.
(§3) Then add 10 μL of the drug solution concentration to individual wells of the 96-well plate seeded with cells.
(§4) • (1) Thaw the CTG reagent and equilibrate the plate to room temperature for 30 minutes. • (2) Add an equal volume of CTG solution to each well. • (3) Lyse cells by shaking on an orbital shaker for 5 minutes. • (4) Leave the plate at room temperature for 20 minutes to stabilize the fluorescence signal. • (5) Read fluorescence value.
(§5) Analyze the data by using GraphPad Prism 7.0 software, and use Non-linear S-curve regression to fit the dose-response curves, to calculate the IC50 values (in nM).

[2] = test system: A431 WT; assay: Cell proliferation assay (CellTiter-Glo), A431 WT; assay type: cell-based; settings: Homo sapiens, A-431; A431 WT cells, 72 hour incubation, CTG
Procedure: as §1, §2, §3, §4, §5

[3] = test system: Ba/F3 EGFR-L858R-C797S (LC); assay: Cell proliferation assay (CellTiter-Glo), Ba/F3 EGFR-L858R-C797S; assay type: cell-based; settings: Mus musculus, BaF3; Ba/F3 EGFR-L858R-C797S cells, 72 hour incubation, CTG
Procedure: as §1, §2, §3, §4, §5

[4] = Pharmacokinetic experiment in mice; assay type: in vivo; settings: mouse, plasma; ICR mice, PO 10 mg/kg (IV 2 mg/kg); read-out: Oral F
From the text: The purpose of this trial is to study the pharmacokinetic behavior of some compounds of the present invention, and the administration method is: Single oral administration (PO) to ICR mice. The compounds used in this trial are from the compounds in the specific examples of the present invention and the listed positive compounds. ICR mice male N=9 original source: Shanghai Sippr-Bk Lab Animal Co., Ltd. The compounds are weighed and dissolved in the corresponding solution (10% PG+10% Solutol®+80% pH3 citrate buffer). The mixture is then shaken well and sonicated to prepare a 1 mg/mL stock solution. Nine mice are orally administered at a dose of 10 mg/kg (or IV 2 mg/kg) after an overnight fast. About 90 μL of blood is collected via the submandibular vein per time point, heparin sodium anticoagulant is added, the sample is placed on ice after collection, and plasma is centrifuged within 1 hour (centrifugation conditions: 8,000 rpm, 6 minutes, 2-8° C.). The blood collection timepoints are 0, 0.25, 0.5, 1, 2, 4, 6, 8 and 24 h. The samples are stored in a −20° C. refrigerator. The plasma sample is 40 μL, 160 μL of ice-cold acetonitrile containing internal standard is added, vortexed for 3 minutes, and centrifuged at 11,000 rpm for 5 minutes. 100 μL of the supernatant is taken and added to 100 μL of water, 5 μL of the sample is taken and injected into LC/MS/MS for analysis.

[5] = phase III FLAURA, compared with first-generation EGFR TKIs; cited from earlier work

Compound: CC(=O)N[C@@H]1CCN(c2nn3c4cc(ncc24)Nc2ccnc(n2)-c2cnn(C)c2OCC2(CCCC2)C3)C1 [Example 49]
- IC50 [1]: 0.0296 µM
- IC50 [2]: 0.926 µM
- IC50 [3]: 0.0599 µM

Compound: CCS(=O)(=O)C[C@H]1CCN(c2nn3c4cc(ncc24)Nc2ccnc(n2)-c2cnn(C)c2OCC2(CCCC2)C3)C1 [Example 35, (S)-3′-(3-((ethylsulfonyl)meth-yl)pyrrolidin-1-yl)-1′-meth-ylspiro(cyclopentane-1,6′-8-oxa-3-aza-4(6,1)-pyrazolo [4,3-c]pyridina-2(2,4)-pyri-midina-1(4,5)-pyrazolacyclo-octaphane)]
- bioavailability [4]: 81.5%

Compound: C=CC(=O)Nc1cc(Nc2nccc(-c3cn(C)c4ccccc34)n2)c(OC)cc1N(C)CCN(C)C [Osimertinib]
- overall survival [5]: 38.6 months
- progression-free survival [5]: 18.9 months
